Here are results for nine compounds from ChEMBL document CHEMBL1201862, “PubChem BioAssay data set” (2004).

Holding throughout (assay): NCI anticancer screen, dose series, 48 h
In test [1] the test system is EKVX.
The subject of test [2] is SK-MEL-2.
The test system of test [3] is HCT-15.
Test [4] has as its system M14.
Test [5] concerns SK-MEL-28.
In test [6] the test system is SNB-78.
The subject of test [7] is HCT-116.
The test system of test [8] is OVCAR-8.
Test [9] relates to HOP-62.
The subject of test [10] is SK-OV-3.
For test [11], the system named is SF-295.
For test [12], the system named is A498.
The test system of test [13] is SK-MEL-5.
Test [14] deals with M19-MEL.
For test [15], the system named is IGROV-1.
In test [16] the test system is Malme-3M.
The test system of test [17] is NCI-H460.
Test [18] relates to SNB-19.
The subject of test [19] is NCI-H23.
Test [20] relates to Hs-578T.

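96-well plates; 48 h exposure; 5 concentrations. Endpoints by linear interpolation between flanking doses. Not reached: highest tested concentration assigned. The concentration for 50% growth inhibition is given as GI50.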 The source made the active and inactive calls. Rule as the data show it: active = GI50 up to about 1.1 µM and inactive = higher.

`COc1cc(CC2c3cc(OC)c(OC)cc3CCN2C)c(Oc2cc3c(cc2OC)-c2c(OC)c(OC)c(OC)c4c2C(C3)N(C)CC4)cc1OC` (stereo unspecified): the GI50 is 16.6 µM (inactive) in test [1]; 14.6 µM (inactive) in [2]; 10.1 µM in test [3]; 2.4 µM (inactive) in test [4]; 9.64 µM (inactive) in test [5]; 17.4 µM (inactive) in test [6]. The GI50 in [7] is 11.7 µM (inactive); in test [8] it was 14.9 µM (inactive); in [9], 17.3 µM (inactive); in [10] it was 19.7 µM (inactive); in test [11], 14.6 µM (inactive); in test [12], 15.3 µM (inactive). For the same compound, the GI50 was 4.33 µM (inactive) in test [13]; 15 µM (inactive) in [14]; 14.3 µM (inactive) in [15]; 2.49 µM (inactive) in [16]; 15.6 µM (inactive) in [17]; 19.4 µM (inactive) in [18]. Further, the GI50 in [19] is 17.1 µM (inactive).

`O=C(O)CN1CCSc2ccccc2CN(CC(=O)O)CCSc2ccccc2C1`: the GI50 is > 100 µM (inactive) in [1]; > 100 µM (inactive) in test [2]; more than 100 µM in [3]; > 100 µM (inactive) in test [4]; > 100 µM (inactive) in [5]; > 100 µM (inactive) in [6]. The GI50 in test [7], in test [8], in test [9], in test [10], in test [11] and in [12] was > 100 µM (inactive) in each case. The GI50 in [13], in [14], in test [15], in test [16], in test [17] and in test [18] was > 100 µM (inactive) throughout. The GI50 in [19] was > 100 µM (inactive).

As for `CC(C)CCCC(C)[C@H]1CCC2[C@@H]3CCC4Nc5nocc5C[C@]4(C)C3CC[C@@]21C` (stereo partly specified), the GI50 was 16.1 µM (inactive) in test [1]; 20.7 µM (inactive) in test [2]; 14.6 µM in test [3]; 16.3 µM (inactive) in [4]; 19.3 µM (inactive) in [6]; 18.4 µM (inactive) in test [7]. Besides, the GI50 is 12.6 µM (inactive) in [8]; 47.1 µM (inactive) in test [9]; 19.4 µM (inactive) in test [10]; 19.3 µM (inactive) in [11]; 21.6 µM (inactive) in test [12]; 14.6 µM (inactive) in test [13]. Moreover, the GI50 in test [14] was 16.9 µM (inactive); in [15], 25.6 µM (inactive); in test [16] it was 15.5 µM (inactive); in test [17] it was 20 µM (inactive); in [18], 21.2 µM (inactive); in [19], 14.6 µM (inactive).

`Cc1c(C(=O)C/C(=N/NC(=O)CC#N)C(N)=O)[n+]([O-])c2ccccc2[n+]1[O-]`: the GI50 was > 100 µM (inactive) in test [1]; > 100 µM (inactive) in test [2]; 25.9 µM in [3]; 34.5 µM (inactive) in [4]; > 100 µM (inactive) in test [5]; 88.3 µM (inactive) in [6]. Moreover, the GI50 in test [7] is 28.1 µM (inactive); in [8], 34.2 µM (inactive); in test [9] it was > 100 µM (inactive); in [10], > 100 µM (inactive); in test [11], > 100 µM (inactive); in [12] it was > 100 µM (inactive). The GI50 in test [13] was 40.6 µM (inactive); in test [14], 21.8 µM (inactive); in test [15], 20.5 µM (inactive); in test [16] it was 32.3 µM (inactive); in test [17] it was 38.4 µM (inactive); in test [18], > 100 µM (inactive). Moreover, in [19], the GI50 is 83.6 µM (inactive).

In the case of `Cc1cccc(=O)c([O-])c1.Cc1cccc(=O)c([O-])c1.[Bi+3].[Cl-]`, the GI50 in test [1] is 15.9 µM (inactive); in test [2] it was 16.8 µM (inactive); in test [3], 4.84 µM; in test [4], 7.55 µM (inactive); in [5], 5.94 µM (inactive); in [6], 24 µM (inactive). Further, the GI50 in test [7] was 3.33 µM (inactive); in test [8], 3.72 µM (inactive); in test [9] it was 14 µM (inactive); in test [10], 22.5 µM (inactive); in [11], 10.4 µM (inactive); in test [12], 16.5 µM (inactive). Also, the GI50 in test [13] is 11.3 µM (inactive); in test [14] it was 11 µM (inactive); in test [15] it was 12.3 µM (inactive); in test [16], 11.9 µM (inactive); in [17] it was 4.32 µM (inactive); in test [18], 15.5 µM (inactive). For the same compound, the GI50 in test [19] was 10.9 µM (inactive).

With `C[C@@H](N[C@H]1CCC[C@@H]1O)c1ccccc1.C[C@@H](N[C@H]1CCC[C@H]1O)c1ccccc1`, the GI50 in [1] is > 100 µM (inactive); in test [2], > 100 µM (inactive); in test [3], more than 100 µM; in [4], 49 µM (inactive); in [5] it was 58.3 µM (inactive); in test [6], > 100 µM (inactive). For the same compound, the GI50 in test [7] was 34.9 µM (inactive); in test [8], > 100 µM (inactive); in test [9], 51.9 µM (inactive); in [10], > 100 µM (inactive); in test [11] it was 40.4 µM (inactive); in test [12], > 100 µM (inactive). Besides, the GI50 was 57.7 µM (inactive) in test [13]; > 100 µM (inactive) in test [14]; > 100 µM (inactive) in test [15]; > 100 µM (inactive) in [16]; 37.8 µM (inactive) in test [17]; 71.8 µM (inactive) in [18]. Moreover, the GI50 in test [19] is > 100 µM (inactive).

`CCNC(=O)CCN(C(=O)O)S(=O)(=O)c1ccc(NC(=O)c2ccccc2)cc1`: the GI50 in test [1] is > 100 µM (inactive); in [2] it was > 100 µM (inactive); in [3], more than 100 µM; in [4], > 100 µM (inactive); in test [5], > 100 µM (inactive); in test [6], > 100 µM (inactive). Also, the GI50 in [7] is 35.6 µM (inactive); in [8], > 100 µM (inactive); in test [9], > 100 µM (inactive); in [10] it was > 100 µM (inactive); in test [11], > 100 µM (inactive); in test [12] it was > 100 µM (inactive). Further, the GI50 in test [13] is > 100 µM (inactive); in test [14], 77.6 µM (inactive); in test [15], > 100 µM (inactive); in test [16], > 100 µM (inactive); in [17], > 100 µM (inactive); in test [18], > 100 µM (inactive). Further, in test [19], the GI50 is > 100 µM (inactive).

`N#Cc1ccc(/C=C(/C(=O)c2ccccc2)c2ccccc2)cc1`: the GI50 in test [1] was 18.8 µM (inactive); in [2], 15 µM (inactive); in test [3], 12.2 µM; in test [4], 13.3 µM (inactive); in [5] it was 15.8 µM (inactive); in test [6] it was 2.79 µM (inactive). For the same compound, the GI50 in test [7] is 4.18 µM (inactive); in test [8], 6.41 µM (inactive); in test [9], 17.9 µM (inactive); in test [10], 20.5 µM (inactive); in test [11], 9.55 µM (inactive); in [12], 17.9 µM (inactive). The GI50 in test [13] was 12.8 µM (inactive); in test [14] it was 14 µM (inactive); in [15], 23.7 µM (inactive); in [16], 12.6 µM (inactive); in test [17], 16.5 µM (inactive); in test [18], 19.4 µM (inactive). The GI50 in test [19] was 15.7 µM (inactive).

`COc1ccc2c(c1)c1c(C)c3cnccc3c(C)c1n2CCCN`: the GI50 was 0.307 µM (active) in [1]; 0.401 µM (active) in [2]; 0.0925 µM in test [3]; 0.145 µM (active) in [4]; 0.458 µM (active) in test [5]; 0.286 µM (active) in test [6]. The GI50 in [7] is 0.0556 µM (active); in [8] it was 0.178 µM (active); in test [9], 0.444 µM (active); in [20] it was 0.277 µM (active); in test [10], 0.415 µM (active); in [11], 0.257 µM (active). Moreover, the GI50 in test [12] is 0.451 µM (active); in [13], 0.383 µM (active); in test [14], 0.203 µM (active); in test [15], 0.313 µM (active); in [16] it was 0.681 µM (active); in test [17], 0.065 µM (active). The GI50 in test [18] was 0.29 µM (active); in [19], 0.216 µM (active).
